{
  "source": "paper PMC8543028",
  "about": "(Infection and Drug Resistance, 2021)",
  "key": {"[1]": {"test_system": "M. tuberculosis H37Ra", "type": "cell-based, Mycobacterium tuberculosis"}, "[2]": {"test_system": "M. tuberculosis H37Rv ATCC 27294 reference strain", "type": "cell-based, Mycobacterium tuberculosis"}},
  "data": [
    {"smiles": "O=[N+]([O-])c1ccc(/C(O)=C/C(=S)S)cc1", "note": "[Compound 11e, (Z)-3-hydroxy-3-(4-nitrophenyl)-prop-2-enedithioic acid]", "values": [
      {"measurement": "MIC100 in H37Ra", "setting": "[1]", "value": "active"},
      {"measurement": "inhibitory activity compared with 11a", "setting": "[2]", "value": "eight times that of 11a"}
    ]}
  ]
}
